Experiments:
Type in all cases: cell-based
JAK2 = biological target: T1, JAK2 (Homo sapiens, UniProt O60674); test: Cell IC50 JAK2
T1 construct: endogenous in cells

[1] = system: IL15 stimulated IFNγ protein; test: Pre-clinical human whole blood IL-15/IFNγ (5 hr); settings: Homo sapiens, 5 h, read-out: Human Whole Blood EC50, IL-15/IFNγ (5 hr)
JAK3 (pSTAT5, lymph) = test: Pre-clinical human whole blood IL-2/pSTAT5 (20 min), lymphocytes; settings: Homo sapiens, Lymphocyte, 20 min; read-out: Human Whole Blood EC50, IL-2/pSTAT5 (20 min)
ITK & JAK (IFNγ protein) = test: Pre-clinical human whole blood αCD3 + IL-15/IFNγ (18 hr); settings: Homo sapiens, 18 h; read-out: Human Whole Blood EC50, αCD3 + IL-15/IFNγ (18 hr)
ITK (IL2 mRNA) = test: Pre-clinical human whole blood αCD3/28/IL-2 mRNA (2 hr); settings: Homo sapiens, 2 h; read-out: Human Whole Blood EC50, αCD3/28/IL-2 mRNA (2 hr)
ITK = biological target: T2, ITK (Homo sapiens, UniProt Q08881); test: Cell IC50 ITK (Jurkat/pPLCγ1)
T2 construct: (Jurkat/pPLCγ1); endogenous in cells; host or cells: Jurkat
T2 sequence (Q08881 1-620): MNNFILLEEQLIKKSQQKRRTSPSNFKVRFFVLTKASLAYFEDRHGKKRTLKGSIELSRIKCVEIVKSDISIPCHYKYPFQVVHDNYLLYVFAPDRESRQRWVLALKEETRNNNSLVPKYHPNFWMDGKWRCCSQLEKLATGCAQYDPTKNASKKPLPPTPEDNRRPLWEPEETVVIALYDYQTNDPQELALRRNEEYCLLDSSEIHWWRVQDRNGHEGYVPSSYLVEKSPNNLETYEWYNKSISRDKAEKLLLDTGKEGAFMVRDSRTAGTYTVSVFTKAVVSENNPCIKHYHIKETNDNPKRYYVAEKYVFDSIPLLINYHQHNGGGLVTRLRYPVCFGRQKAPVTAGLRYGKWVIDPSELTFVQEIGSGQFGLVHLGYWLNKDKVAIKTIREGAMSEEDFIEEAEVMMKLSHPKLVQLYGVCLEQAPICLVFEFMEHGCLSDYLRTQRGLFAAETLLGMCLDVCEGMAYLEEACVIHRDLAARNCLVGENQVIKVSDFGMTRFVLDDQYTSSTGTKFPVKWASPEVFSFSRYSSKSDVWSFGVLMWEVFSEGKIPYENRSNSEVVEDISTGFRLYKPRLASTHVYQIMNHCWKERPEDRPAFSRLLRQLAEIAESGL

T1 sequence (O60674 whole entry): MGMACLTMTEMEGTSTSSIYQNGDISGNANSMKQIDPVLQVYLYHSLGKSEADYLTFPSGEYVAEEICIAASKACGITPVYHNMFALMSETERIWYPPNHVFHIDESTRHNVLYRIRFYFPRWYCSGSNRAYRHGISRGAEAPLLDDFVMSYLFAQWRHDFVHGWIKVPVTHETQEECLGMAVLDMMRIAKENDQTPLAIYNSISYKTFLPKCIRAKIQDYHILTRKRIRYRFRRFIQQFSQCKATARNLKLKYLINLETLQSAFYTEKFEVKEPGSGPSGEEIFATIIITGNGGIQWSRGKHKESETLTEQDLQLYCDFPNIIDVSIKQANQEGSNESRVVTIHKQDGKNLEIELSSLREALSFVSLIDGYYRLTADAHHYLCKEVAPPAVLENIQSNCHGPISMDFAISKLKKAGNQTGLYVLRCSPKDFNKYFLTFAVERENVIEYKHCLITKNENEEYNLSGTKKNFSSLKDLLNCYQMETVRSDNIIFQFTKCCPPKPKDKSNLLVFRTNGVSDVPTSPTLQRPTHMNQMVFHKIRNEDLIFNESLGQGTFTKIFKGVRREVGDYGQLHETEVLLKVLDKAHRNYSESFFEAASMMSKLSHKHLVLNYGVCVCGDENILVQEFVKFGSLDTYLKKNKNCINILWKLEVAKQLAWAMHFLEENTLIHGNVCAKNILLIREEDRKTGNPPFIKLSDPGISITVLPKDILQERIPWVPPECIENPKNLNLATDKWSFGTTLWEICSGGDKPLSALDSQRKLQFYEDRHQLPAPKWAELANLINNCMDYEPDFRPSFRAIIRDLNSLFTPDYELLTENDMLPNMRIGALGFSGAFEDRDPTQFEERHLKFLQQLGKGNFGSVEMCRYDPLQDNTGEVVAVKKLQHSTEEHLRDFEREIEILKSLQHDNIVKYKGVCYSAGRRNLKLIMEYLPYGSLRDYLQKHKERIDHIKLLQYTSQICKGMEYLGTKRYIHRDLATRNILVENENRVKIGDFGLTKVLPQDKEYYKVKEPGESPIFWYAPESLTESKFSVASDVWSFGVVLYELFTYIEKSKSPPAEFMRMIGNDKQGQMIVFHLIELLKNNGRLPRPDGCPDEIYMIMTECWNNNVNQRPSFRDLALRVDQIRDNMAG

| Structure (SMILES) | Cell IC50, JAK2 (JAK2) | EC50 [1] | EC50 (JAK3 (pSTAT5, lymph)) | EC50 (ITK & JAK (IFNγ protein)) | EC50 (ITK (IL2 mRNA)) | Cell IC50, ITK (ITK) |
| --- | --- | --- | --- | --- | --- | --- |
| C=CC(=O)N1C[C@H](Nc2ncnc3[nH]ccc23)CC[C@@H]1C [Ritlecitinib, reference compound] | Inactive | 52 nM | […] | 33 nM | 740 nM | – |
| C[C@@H]1CCN(C(=O)CC#N)C[C@@H]1N(C)c1ncnc2[nH]ccc12 [Tofacitinib, reference compound] | – | – | – | – | – | Inactive |

— patent US20260191863A1, “PYRROLOPYRIMIDINE COMPOSITIONS FOR TREATMENT OF ITK MEDIATED CONDITIONS” (ACLARIS THERAPEUTICS, INC., priority 2022, published 2026)
